Measured values as given in PMC9530166, “Allosteric regulation of glycogen breakdown by the second messenger cyclic di-GMP” (Nature Communications, 2022).

Columns and labels:
GlgX = GlgX (Streptomyces venezuelae, UniProt F2RAW5); assay: Microscale thermophoresis (MST); assay type: binding; conditions: 40 nM RED-NHS labeled GlgX, unlabeled c-di-GMP, n=2
Procedure: For MST experiments, purified GlgX was labeled using Monolith NT protein labeling kit RED-NHS (amine reactive) dye (NanoTemper Technologies GmbH) according to manufacturer´s guidelines. The protein concentration was adjusted to 20 μM in labeling buffer and the labeling reaction was carried out at rt for 30 min in the dark. Excess fluorescence dye was subsequently removed from the labeled protein by gel filtration using a dye removal column provided by the supplier and equilibrated with MST buffer (25 mM Tris pH 8, 150 mM NaCl, 2.5% (v/v) glycerol, 5 mM MgCl2, 0.05% (v/v) Tween). A UV/VIS spectrophotometry at 650 and 280 nm was used to determine the degree of labeling. Next, labeled GlgX was adjusted to 80 nM in MST buffer and a series of 16 1:2 dilutions of c-di-GMP (BioLog) were prepared using the same buffer. An equal volume of protein and c-di-GMP dilutions were mixed resulting in 16 samples with 40 nM protein each and c-di-GMP concentrations ranging from 2 mM to […]. Samples were then loaded into Monolith NT.115 Premium Capillaries (NanoTemper Technologies) and MST was measured using a Monolith NT.115 instrument (NanoTemper Technologies). Instrument parameters were set to 20% LED power and 40% MST power and the data were analyzed using MO.Affinity Analysis software version 2.3; NanoTemper Technologies. […]

GlgXE47A-R49A = assay: Fluorescence polarization binding, GlgXE47A-R49A; design: species or system Streptomyces venezuelae
From the text: Fig. 5 Structure of the S. venezuelae GlgX-c-di-GMP complex. a Ribbon diagram of the S. venezuelae GlgX-c-di-GMP complex with one GlgX subunit colored cyan and the other salmon. Shown as sticks are the c-di-GMP molecules bound at each end of the antiparallel dimer. […] There was clear density for each c-di-GMP molecule. b Close up of the GlgX-c-di-GMP binding interaction. Key residues mediating contacts to the c-di-GMP are shown as sticks and labeled. Hydrogen bonds from GlgX residues that specify binding to the guanine are indicated by yellow dashed lines. c Fluorescence polarization (FP) binding isotherm showing interaction of GlgX, GlgXE47A-R49A and GlgXR438A-R579A for F-c-di-GMP in red, green and blue respectively. Also shown is the binding isotherm for GlgX binding to F-c-di-AMP in black. […] The y-axis and x-axis are millipolarization (mP) units and GlgX concentration (μM), respectively. Shown are representative binding curves for each. The experiments were performed in technical triplicates and the error between measurements reported. […]
Thus, we used this F-tagged c-di-GMP in fluorescence polarization (FP) studies to quantify the interaction between GlgX and c-di-GMP. […] To ensure that the presence of the fluorescent tag was not impacting the GlgX interaction with c-di-GMP we used microscale thermophoresis (MST) to quantify c-di-GMP binding to GlgX. […]

Chain of GlgX (F2RAW5 entry or part of it): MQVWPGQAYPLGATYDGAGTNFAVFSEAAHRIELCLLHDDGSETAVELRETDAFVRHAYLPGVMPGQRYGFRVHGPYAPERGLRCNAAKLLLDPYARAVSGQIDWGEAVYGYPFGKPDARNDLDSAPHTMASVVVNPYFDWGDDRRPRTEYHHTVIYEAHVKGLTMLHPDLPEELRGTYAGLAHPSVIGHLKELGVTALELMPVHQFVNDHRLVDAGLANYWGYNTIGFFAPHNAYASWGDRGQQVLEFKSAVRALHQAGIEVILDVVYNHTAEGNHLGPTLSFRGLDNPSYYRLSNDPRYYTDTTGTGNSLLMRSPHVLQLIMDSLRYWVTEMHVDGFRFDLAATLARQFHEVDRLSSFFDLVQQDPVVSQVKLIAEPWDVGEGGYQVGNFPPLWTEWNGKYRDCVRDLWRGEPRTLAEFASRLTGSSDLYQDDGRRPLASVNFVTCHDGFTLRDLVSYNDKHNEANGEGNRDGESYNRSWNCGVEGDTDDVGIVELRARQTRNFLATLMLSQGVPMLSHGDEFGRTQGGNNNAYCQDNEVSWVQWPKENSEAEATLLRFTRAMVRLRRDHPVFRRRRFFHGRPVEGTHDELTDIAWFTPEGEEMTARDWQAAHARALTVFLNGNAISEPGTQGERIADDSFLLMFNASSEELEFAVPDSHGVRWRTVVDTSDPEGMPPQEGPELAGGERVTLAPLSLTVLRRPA

Structure (SMILES): Nc1nc2c(ncn2[C@@H]2O[C@@H]3CO[P@](=O)(O)O[C@H]4[C@@H](O)[C@H](n5cnc6c(=O)[nH]c(N)nc65)O[C@@H]4CO[P@](=O)(O)O[C@H]3[C@H]2O)c(=O)[nH]1 [c-di-GMP, bis-(3′−5′)-cyclic diguanosine monophosphate]
- Kd (GlgX): 8.3 µM
- binding to mutant in FP (GlgXE47A-R49A): weak, nonsaturable binding
